Measured values reported in patent US6417182B1, “Pharmaceutical compositions comprising metal complexes” (AnorMED Inc., priority 1993, dated 2002).

Key:
[1] = tested on: murine (RAW264) macrophage cell lines; test: in vitro cell culture test: available nitric oxide (nitrite+nitrate, Griess) in activated macrophages; assay type: cell-based; details: up to 100 μM
Method: In the in vitro cell culture tests, murine (RAW264) macrophage cell lines, which can be induced to produce nitric oxide, were seeded, 10^6 cells/well, onto 24 well culture plates of 2 ml volume per well, in Eagles modified minimal essential medium (MEM) plus 10% foetal bovine serum without phenol red.
The cells were activated to produce nitric oxide, with 10 μg/ml lipopolysaccharide and 100 units/ml interferon γ for 18 hours. Concurrently, test compounds made up in MEM were added at non-cytotoxic concentrations. […]
Background nitric oxide was assessed by measurement of nitrate and nitrite in cells which were not activated. […]
Nitric oxide was determined by measurement of nitrate and nitrite in the cell supernatant These anions are the stable end-products of reactions of NO in solution. […] Nitrite was determined using the Griess reaction in which nitrite reacts with 1% sulphanilamide in 5% H3PO4/0.1% naphthylethylenediamine dihydrochloride to form a chromophore absorbing at 540 nm Nitrate was determined by reducing nitrate to nitrite with a bacterial nitrate reductase from Pseudomonas oleovorans and then measuring nitrite with the Griess reaction. […] The effect of test compounds on available nitric oxide (measured as nitrite+nitrate) was determined. […]

[2] = tested on: rat tail artery; test: ex vivo rat tail artery perfusion test (vasoconstriction by removal of endogenous NO); design: species or system Wistar rats; details: for vasoconstriction on application of test compound (in words): 10 μM and 100 μM (Example 26 also 1000 μM); for reversibility of vasoconstriction: washout with Krebs solution
Excerpt: In the ex vivo tests, segments of rat tail artery (0.8-1.5 cm) were dissected free from normotensive adult Wistar rats. The arteries were internally perfused with Krebs solution (mM: NaCl 118, KCl 4.7, NaHCO3, 25, NaH2PO4 1.15, CaCl2 2.5, MgCl2 1.1, glucose 5.6 and gassed with 95% O2/5% CO2 to maintain a pH of 7.4) in a constant flow perfusion apparatus. A differential pressure transducer located upstream of the vessel detected changes in back pressure. The rat tail artery preparation was pre-contracted with 6.5 μM phenylephrine to give a physiologically normal pressure of 100-120 mm Hg. The pre-contracted vessels were then perfused with the test compound. The arteries were perfused with Krebs solution between applications of test compound to wash out the test compound.
Pressure changes in the system served to indicate artery vasoconstriction. The vasoconstriction is a direct result of the removal of endogenous nitric oxide (edrf) from the endothelial cells of the rat tail artery.

[3] = in vitro NO uptake test (manometric pressure decrease; IR spectrum of freeze-dried product); details: aqueous solution under argon, 20-24° C., NO gas in headspace, pressure recorded over one hour
Method: The resulting solution was placed in a three-necked pear-shaped flask and stirred by a magnetic stirrer at constant speed of 1000 rpm, at a constant temperature in the range 20° C.-24° C. A manometer was attached to the flask, and purified, dried nitric oxide gas (known volume in the range 3-5 cm^3) was introduced via a septum, using a gas syringe, at atmospheric pressure into the headspace above the reaction solution. The pressure within the flask was recorded periodically over a period of one hour.
A control experiment was carried out according to the above but without any complex present.
On completion of each in vitro test, the reaction solution was freeze-dried. An infrared spectrum of the freeze-dried product provided information on metal-NO bond formation.

Molecule: O.O.O=C([O-])CN(CCN(CC(=O)[O-])CC(=O)O)CC(=O)[O-].[Cl-].[K+].[Ru+3] [Example 1, K[Ru(Hedta)Cl]2H2O]
- dose dependence of reduction of available nitric oxide [1]: reduced in a dose-dependent fashion

Molecule: CC(=O)C=C(C)[O-].O=C([O-])CN(CCN(CC(=O)[O-])CC(=O)O)CC(=O)O.[Ru+3] [Example 2, [Ru(H2edta)(acac)]]
- vasoconstriction on application of test compound (in words) [2]: dose-dependent vasoconstriction
- reversibility of vasoconstriction [2]: reversible by washout with Krebs solution

Molecule: O.O=C([O-])CN(CCO)CCN(CC(=O)[O-])CC(=O)[O-].[Cl-].[K+].[Ru+3] [Example 3, K[Ru(hedtra)Cl]H2O]
- vasoconstriction on application of test compound (in words) [2]: dose-dependent vasoconstriction
- reversibility of vasoconstriction [2]: reversible by washout with Krebs solution

Molecule: O.O=C([O-])CN(CC(=O)[O-])CC(=O)O.O=C([O-])CN(CC(=O)[O-])CC(=O)O.O=C([O-])CN(CC(=O)[O-])CC(=O)O.O=C([O-])CN(CC(=O)[O-])CC(=O)O.[K+].[K+].[Ru+3].[Ru+3] [Example 7, K[Ru(Hnta)2]½H2O]
- pressure decrease indicating binding of NO to the metal compound [3]: pressure decrease indicated binding of NO

Molecule: O.O=C([O-])CN(CCN(CC(=O)[O-])CC(=O)O)CCN(CC(=O)[O-])CC(=O)O.[Cl-].[K+].[Ru+3] [Example 8, K[Ru(H2dtpa)Cl]H2O]
- pressure decrease indicating binding of NO to the metal compound [3]: pressure decrease indicated binding of NO

Molecule: CC(=O)[O-].CC(=O)[O-].CC(=O)[O-].CC(=O)[O-].[Cl-].[Ru+3].[Ru+3] [Example 14, [Ru2(OAc)4]Cl]
- vasoconstriction on application of test compound (in words) [2]: dose-dependent vasoconstriction
- reversibility of vasoconstriction [2]: reversible by washout with Krebs solution

Molecule: Cc1occc(=O)c1[O-].Cc1occc(=O)c1[O-].Cc1occc(=O)c1[O-].[Ru+3] [Example 26, [Ru(maltol)3]]
- vasoconstriction on application of test compound (in words) [2]: dose-dependent vasoconstriction
- reversibility of vasoconstriction [2]: reversible by washout with Krebs solution

Molecule: [Ru(NH3)5Cl]Cl2 [Example 15]
- vasoconstriction on application of test compound (in words) [2]: dose-dependent vasoconstriction
- % Vasoconstriction ([2]; 10 μM, artery pre-contracted with 6.5 μM phenylephrine): 16%
- reversibility of vasoconstriction [2]: reversible by washout with Krebs solution
